Data reported in ChEMBL document CHEMBL4699511, “Cedrol, a Sesquiterpene Alcohol, Enhances the Anticancer Efficacy of Temozolomide in Attenuating Drug Resistance via Regulation of the DNA Damage Response and MGMT Expression” (J Nat Prod, 2020).
Activity calls are given as the source filed them. The calls are words filed in the database; no cut-off is given here.

Legend:
RG2 [1] = assay: Inhibition of ERK phosphorylation at Tyr204 residues in rat RG2 cells at 206 uM after 48 hrs by Western blot analysis (reference value: 1); type: cell-based
RG2 [2] = assay: Induction of apoptosis in rat RG2 cells assessed as increase in chromatin condensation at 206 uM after 48 hrs by TUNEL assay; type: functional, cell-based
DBTRG-05MG [3] = assay: Induction of cell cycle arrest in human DBTRG-05MG cells assessed as CyclinB1 expression at 206 uM after 48 hrs by Western blot analysis (reference value: 1); type: functional
RG2 [4] = assay: Induction of apoptosis in rat RG2 cells assessed as cleaved caspace-3 expression at 206 uM after 48 hrs by Western blot analysis (reference value: 1); type: functional
DBTRG-05MG [5] = assay: Induction of cell cycle arrest in human DBTRG-05MG cells assessed as accumulation at S phase at 206 uM after 6 hrs by propidium iodide staining based flow cytometric analysis (reference value: 22.76 +/- 1.56%); type: functional
DBTRG-05MG [6] = assay: Induction of cell cycle arrest in human DBTRG-05MG cells assessed as accumulation at G0/G1 phase at 206 uM after 24 hrs by propidium iodide staining based flow cytometric analysis (reference value: 47.16 +/- 1.55%); type: functional
DBTRG-05MG [7] = assay: Antitumour activity against human DBTRG-05MG cells xenografted in BALB/c nude mouse assessed as increase in survival time at 5 mg/kg, ip for 5 days and measured every 2 days; type: functional, organism-based; details: time 5.0 day
RG2 [8] = assay: Synergistic cytotoxicity against rat RG2 cells assessed as combination index at 89.9 uM after 48 hrs in presence of 103 uM TMZ by MTT assay; type: functional
RG2 [9] = assay: Induction of apoptosis in rat RG2 cells assessed as phosphorylated PARP expression at 112.4 uM after 48 hrs by Western blot analysis (reference value: 1); type: functional
DBTRG-05MG [10] = assay: Synergistic cytotoxicity against human DBTRG-05MG cells assessed as synergistic effect index at 112.4 uM after 48 hrs in presence of 206 uM TMZ by MTT assay; type: functional
RG2 [11] = assay: Induction of cell cycle arrest in rat RG2 cells assessed as CyclinB1 expression at 112.4 uM after 48 hrs in presence of TMZ by Western blot analysis (reference value: 1); type: functional
RG2 [12] = assay: Induction of cell cycle arrest in rat RG2 cells assessed as CyclinA expression at 112.4 uM after 48 hrs in presence of TMZ by Western blot analysis (reference value: 1); type: functional
DBTRG-05MG [13] = assay: Induction of apoptosis in human DBTRG-05MG cells assessed as phosphorylated caspace-9 expression at 112.4 uM after 48 hrs by Western blot analysis (reference value: 1); type: functional
[14] = Effect on p38 expression in human DBTRG-05MG cells at 112.4uM after 48 hrs in presence of TMZ by Western blot analysis (reference value: 1); type: functional
[15] = Effect on JNK expression in rat RG2 cells at 112.4uM after 48 hrs in presence of TMZ by Western blot analysis (reference value: 1); type: functional
RG2 [16] = assay: Induction of cell cycle arrest in rat RG2 cells assessed as accumulation at G0/G1 phase at 112.4 uM after 6 hrs in presence of TMZ by propidium iodide staining based flow cytometric analysis (reference value: 57.81 +/- 1.9%); type: functional
RG2 [17] = assay: Induction of apoptosis in rat RG2 cells assessed as Bax expression at 112.4 uM after 48 hrs by Western blot analysis (reference value: 1); type: functional
RG2 [18] = assay: Induction of cell cycle arrest in rat RG2 cells assessed as accumulation at G2/M phase at 112.4 uM after 6 hrs by propidium iodide staining based flow cytometric analysis (reference value: 20.04 +/- 0.55%); type: functional
DBTRG-05MG [19] = assay: Potentiation of TMZ-induced antitumor activity against human DBTRG-05MG cells xenografted in BALB/c nude mouse assessed as reduction in MGMT expression at 75 mg/kg, sc co-treated with TMZ for 18 days by fluorescent immunocytochemistry method; type: functional, organism-based; details: time 18.0 day
DBTRG-05MG [20] = assay: Induction of cell cycle arrest in human DBTRG-05MG cells assessed as accumulation at S phase at 112.4 uM after 48 hrs in presence of TMZ by propidium iodide staining based flow cytometric analysis (reference value: 22.76 +/- 1.56%); type: functional
[21] = Synergistic cytotoxicity against rat CTX TNA2 cells assessed as combination index at 134.9 uM after 48 hrs in presence of 309 uM TMZ by MTT assay; type: cell-based; details: ctx tna2, 48 h
DBTRG-05MG [22] = assay: Induction of cell cycle arrest in human DBTRG-05MG cells assessed as accumulation at G2/M phase at 112.4 uM after 6 hrs in presence of TMZ by propidium iodide staining based flow cytometric analysis (reference value: 30.08 +/- 0.1%); type: functional
[23] = Synergistic cytotoxicity against rat CTX TNA2 cells assessed as synergistic effect index at 89.9 uM after 48 hrs in presence of 412.1 uM TMZ by MTT assay; type: cell-based; details: ctx tna2, 48 h
RG2 [24] = assay: Induction of cell cycle arrest in rat RG2 cells assessed as CyclinA expression at 112.4 uM after 48 hrs by Western blot analysis (reference value: 1); type: functional
[25] = Effect of MDR1 expression in human DBTRG-05MG cells at 112.4 uM after 48 hrs by Western blot analysis; type: functional
[26] = Effect on p38 expression in rat RG2 cells at 112.4uM after 48 hrs in presence of TMZ by Western blot analysis (reference value: 1); type: functional
RG2 [27] = assay: Induction of DNA damage in rat RG2 cells assessed as ATR phosphorylation at ser428 residues at 112.4 uM after 48 hrs in presence of TMZ by Western blot analysis (reference value: 1); type: functional
DBTRG-05MG [28] = assay: Induction of cell cycle arrest in human DBTRG-05MG cells assessed as accumulation at G0/G1 phase at 112.4 uM after 12 hrs in presence of TMZ by propidium iodide staining based flow cytometric analysis (reference value: 47.16 +/- 1.55%); type: functional
RG2 [29] = assay: Induction of cell cycle arrest in rat RG2 cells assessed as accumulation at S phase at 112.4 uM after 6 hrs in presence of TMZ by propidium iodide staining based flow cytometric analysis (reference value: 20.15 +/- 2.44%); type: functional
DBTRG-05MG [30] = assay: Induction of DNA damage in human DBTRG-05MG cells assessed as ATM phosphorylation at ser1981 residues at 112.4 uM after 48 hrs in presence of TMZ by Western blot analysis (reference value: 1); type: functional
[31] = Effect on AKT expression in human DBTRG-05MG cells at 112.4uM after 48 hrs in presence of TMZ by Western blot analysis (reference value: 1); type: functional
RG2 [32] = assay: Induction of apoptosis in rat RG2 cells assessed as Bcl2 expression at 112.4 uM after 48 hrs in presence of TMZ by Western blot analysis (reference value: 1); type: functional
RG2 [33] = assay: Synergistic cytotoxicity against rat RG2 cells assessed as synergistic effect index at 112.4 uM after 48 hrs in presence of 515.1 uM TMZ by MTT assay; type: functional

Which fold change (FC) (RG2 [1]) does the source give for `Cn1nnc2c(C(N)=O)ncn2c1=O` [TEMOZOLOMIDE] here?
The fold change (FC) was 0.7.

And the Activity (RG2 [2])?
The Activity was “Active”.

And the “fold change (FC)” value (DBTRG-05MG [3])?
Its value is 1.4.

What about the “fold change (FC)” value (RG2 [4]) of the same compound?
The value was 2.5.

And the Activity (DBTRG-05MG [5])?
Its Activity is 24.76%.

And the Activity (DBTRG-05MG [6])?
The Activity was 31.03%.

What about the Activity (DBTRG-05MG [7]) of the same compound?
The Activity was “Active”.

For `C[C@@H]1CC[C@H]2C(C)(C)[C@H]3C[C@@]12CC[C@@]3(C)O` [CEDROL], which CI (RG2 [8]) is on record?
The CI was 0.88.

What about the “fold change (FC)” value (RG2 [9]) of the same compound?
The value was 0.6.

And the Activity_index (DBTRG-05MG [10])?
Its Activity_index is 0.88.

What about the “fold change (FC)” value (RG2 [11]) of the same compound?
The value was 0.7.

And the “fold change (FC)” value (RG2 [12])?
The value was 0.7.

What about the “fold change (FC)” value (DBTRG-05MG [13]) of the same compound?
The value was 0.8.

And the “fold change (FC)” value [14]?
The value was 0.8.

And the “fold change (FC)” value [15]?
The value was 0.5.

What about the Activity (RG2 [16]) of the same compound?
The Activity was 61.59%.

What about the “fold change (FC)” value (RG2 [17]) of the same compound?
Its value is 1.1.

What about the Activity (RG2 [18]) of the same compound?
Its Activity is 21.06%.

What about the Activity (DBTRG-05MG [19]) of the same compound?
Its Activity is “Active”.

And the Activity (DBTRG-05MG [20])?
Its Activity is 20.58%.

What about the CI [21] of the same compound?
Its CI is 1.13.

What about the Activity (DBTRG-05MG [22]) of the same compound?
The Activity was 32.51%.

What about the Activity_index [23] of the same compound?
Its Activity_index is 0.56.

And the “fold change (FC)” value (RG2 [24])?
Its value is 0.4.

And the “fold change (FC)” value [25]?
The value was 1.2.

And the “fold change (FC)” value [26]?
Its value is 0.5.

And the “fold change (FC)” value (RG2 [27])?
The value was 1.1.

What about the Activity (DBTRG-05MG [28]) of the same compound?
Its Activity is 49.57%.

And the Activity (RG2 [29])?
The Activity was 19.02%.

What about the “fold change (FC)” value (DBTRG-05MG [30]) of the same compound?
Its value is 2.9.

What about the “fold change (FC)” value [31] of the same compound?
The value was 0.6.

And the “fold change (FC)” value (RG2 [32])?
The value was 0.9.

What about the Activity_index (RG2 [33]) of the same compound?
Its Activity_index is 0.83.
